Data from US10577363B2, “Substituted piperidine compounds” (EPIZYME, INC., priority 2014, dated 2020).

These compounds were tested against SMYD3 (Homo sapiens (Human), UniProt Q9H7B4) (assay: SMYD3 biochemical assay (SPA, 3H-SAM methylation of MEKK2 protein substrate)). Settings: read-out: SMYD3 Biochem IC50 (μM)*.
Source text: S-adenosylmethionine (SAM), S-adenosylhomocysteine (SAH), Tris, Tween20, dimethylsulfoxide (DMSO), bovine skin gelatin (BSG), and Tris(2-carboxyethyl)phosphine hydrochloride solution (TCEP) were purchased from Sigma-Aldrich at the highest level of purity possible. ^3H-SAM was purchase from American Radiolabeled Chemicals with a specific activity of 80 Ci/mmol. 384-well opaque white OptiPlates and SPA beads (Perkin Elmer, catalog # RPNQ0013) were purchased from PerkinElmer.
N-terminally GST-tagged MEKK2 (MAP3K2) protein corresponding to reference sequence AAF63496.3 was purchased from Life Technologies (catalog # PV4010). This protein was expressed in High Five insect cells and purified to >85% purity. Protein identity was confirmed by MS/MS analysis after proteolytic digestion. The protein sequence used was:
Full-length human SMYD3 isoform 1 (BAB86333) was inserted into a modified pET21b plasmid containing a His6 tag and TEV and SUMO cleavage sites.
E. coli (BL21 codonplus RIL strain, Stratagene) were transformed with plasmid pEPZ553 by mixing competent cells and plasmid DNA and incubating on ice for 30 minutes followed by heat shock at 42° C. for 1 minute and cooling on ice for 2 minutes. Transformed cells were grown and selected on LB agar with 100 μg/mL ampicillin and 17 μg/mL chloramphenicol at 37° C. overnight. A single clone was used to inoculate 200 mL of LB medium with 100 μg/mL ampicillin and 17 μg/mL chloramphenicol and incubated at 37° C. on an orbital shaker at 180 rpm. Once in log growth, the culture was diluted 1:100 into 2 L of LB medium and grown until OD600 was about 0.3 after which the culture was incubated at 15° C. and 160 rpm. Once OD600 reached about 0.4, IPTG was added to a final concentration of 0.1 mM and the cells were grown overnight at 15° C. and 160 rpm. Cells were harvested by centrifugation at 8000 rpm, for 4 minutes at 4° C. and stored at −80° C. for purification.
The column was washed with Buffer B (Buffer A plus 20 mM imidazole) and His-tagged SMYD3 was eluted with Buffer C (Buffer A plus 300 mM imidazole). The His tag, TEV and SUMO cleavage sites were removed generating native SMYD3 by addition of ULP1 protein at a ratio of 1:200 (ULP1:SMYD3). Imidazole was removed by dialysis overnight in Buffer A. The dialyzed solution was applied to a second Nickel column and the native SMYD3 protein was collected from the column flow-through. The flow-through was dialyzed in Buffer D (25 mM Tris, 5% glycerol, 5 mM β-mercaptoethanol, 50 mM NaCl, pH7.8) and ULP1 was removed using a Q sepharose fast flow column.
General Procedure for SMYD3 Enzyme Assays on MEKK2 Protein Substrate
The assays were all performed in a buffer consisting of 25 mM Tris-Cl pH 8.0, 1 mM TCEP, 0.005% BSG, and 0.005% Tween 20, prepared on the day of use. […] DMSO (1 ul) was added to Columns 11, 12, 23, 24, rows A-H for the maximum signal control and 1 ul of SAH, a known product and inhibitor of SMYD3, was added to columns 11, 12, 23, 24, rows I-P for the minimum signal control. A cocktail (40 ul) containing the SMYD3 enzyme was added by Multidrop Combi (Thermo-Fisher). The compounds were allowed to incubate with SMYD3 for 30 min at room temperature, then a cocktail (10 ul) containing SAM and MEKK2 was added to initiate the reaction (final volume=51 ul). […] The assays were stopped by the addition of non-radiolabeled SAM (10 ul) to a final concentration of 100 uM, which dilutes the ^3H-SAM to a level where its incorporation into MEKK2 is no longer detectable. Radiolabeled MEKK2 was detected using a scintillation proximity assay (SPA). 10 uL of a 10 mg/mL solution of SPA beads in 0.5 M citric acid was added and the plates centrifuged at 600 rpm for 1 min to precipitate the radiolabeled MEKK2 onto the SPA beads. The plates were then read in a PerkinElmer TopCount plate reader to measure the quantity of ^3H-labeled MEKK2 as disintegrations per minute (dpm) or alternatively, referred to as counts per minute (cpm).

Row | IC50 | Structure (SMILES)
1 | 7.16 µM | NC[C@H](Cc1ccc(O)c(Cl)c1)C(=O)N1CCC(NC(=O)c2cc(C3CC3)on2)CC1 [compound 64, (S)-N-(1-(3-amino-2-(3-chloro-4-hydroxybenzyl)propanoyl)piperidin-4-yl)-5-cyclopropylisoxazole-3-carboxamide]
2 | 2.32 µM | C[C@H]1CN(C(=O)[C@@H](N)Cc2ccc(O)cc2)CCC1NC(=O)c1cc(C2CC2)on1 (stereo partly drawn) [compound 67, N-((3S)-1-(L-tyrosyl)-3-methylpiperidin-4-yl)-5-cyclopropylisoxazole-3-carboxamide]
3 | 1.69 µM | C[C@@H]1CN(C(=O)[C@@H](N)Cc2ccc(O)cc2)CCC1NC(=O)c1cc(C2CC2)on1 (stereo partly drawn) [compound 68, N-((3R)-1-(L-tyrosyl)-3-methylpiperidin-4-yl)-5-cyclopropylisoxazole-3-carboxamide]
4 | 12.4 µM | C[C@H]1CC(NC(=O)c2cc(C3CC3)on2)CCN1C(=O)CCN1CCCC1 (stereo partly drawn) [compound 69, 5-cyclopropyl-N-((2S)-2-methyl-1-(3-(pyrrolidin-1-yl)propanoyl)piperidin-4-yl)isoxazole-3-carboxamide]
5 | 7.73 µM | C[C@@H]1CC(NC(=O)c2cc(C3CC3)on2)CCN1C(=O)CCN1CCCC1 (stereo partly drawn) [compound 70, 5-cyclopropyl-N-((2R)-2-methyl-1-(3-(pyrrolidin-1-yl)propanoyl)piperidin-4-yl)isoxazole-3-carboxamide]
6 | 2.54 µM | C[C@H]1CC(NC(=O)c2cc(C3CC3)on2)CCN1C(=O)[C@H]1C[C@@H](N)C1 (stereo partly drawn) [compound 71, N-((2S)-1-((1s,3R)-3-aminocyclobutane-1-carbonyl)-2-methylpiperidin-4-yl)-5-cyclopropylisoxazole-3-carboxamide]
7 | 2.72 µM | C[C@H]1CC(NC(=O)c2cc(C3CC3)on2)CCN1C(=O)[C@H]1C[C@H](N)C1 (stereo partly drawn) [compound 72, N-((2S)-1-((1r,3S)-3-aminocyclobutane-1-carbonyl)-2-methylpiperidin-4-yl)-5-cyclopropylisoxazole-3-carboxamide]
8 | 7.31 µM | CCS(=O)(=O)N1CCC(NC(=O)c2cc(C3CC3)on2)C[C@H]1C (stereo partly drawn) [compound 75, 5-cyclopropyl-N-((2R)-1-(ethylsulfonyl)-2-methylpiperidin-4-yl)isoxazole-3-carboxamide]
9 | 0.541 µM | CC[C@H]1CN(C(=O)CC2CCNCC2)CC[C@@H]1NC(=O)c1cc(C2CC2)on1 [compound 76, 5-cyclopropyl-N-((3S,4S)-3-ethyl-1-(2-(piperidin-4-yl)acetyl)piperidin-4-yl)isoxazole-3-carboxamide]
10 | 20.4 µM | N[C@H](Cc1ccc(O)cc1)CN1CCC(NC(=O)c2cc(C3CC3)on2)CC1 [compound 79, (R)-N-(1-(2-amino-3-(4-hydroxyphenyl)propyl)piperidin-4-yl)-5-cyclopropylisoxazole-3-carboxamide]
11 | 6.81 µM | CC1CN(C(=O)CCN)CCC1NC(=O)c1cc(C2CC2)on1 (centres unmarked) [compound 80, N-(1-(3-aminopropanoyl)-3-methylpiperidin-4-yl)-5-cyclopropylisoxazole-3-carboxamide]
12 | 22.1 µM | C[C@@H]1CC(NC(=O)c2cc(C3CC3)on2)CCN1C(=O)CN (stereo partly drawn) [compound 81, 5-cyclopropyl-N-((2R)-1-glycyl-2-methylpiperidin-4-yl)isoxazole-3-carboxamide]
13 | 10.5 µM | C[C@H]1C[C@@H](NC(=O)c2cc(C3CC3)on2)CCN1C(=O)CCN [compound 82, N-((2S,4S)-1-(3-aminopropanoyl)-2-methylpiperidin-4-yl)-5-cyclopropylisoxazole-3-carboxamide]
14 | 6.6 µM | C[C@H]1C[C@H](NC(=O)c2cc(C3CC3)on2)CCN1C(=O)CCN [compound 83, N-((2S,4R)-1-(3-aminopropanoyl)-2-methylpiperidin-4-yl)-5-cyclopropylisoxazole-3-carboxamide]
15 | 6.14 µM | C[C@@H]1CC(NC(=O)c2cc(C3CC3)on2)CCN1C(=O)CCN (stereo partly drawn) [compound 84, N-((2R)-1-(3-aminopropanoyl)-2-methylpiperidin-4-yl)-5-cyclopropylisoxazole-3-carboxamide]
16 | 2.37 µM | C[C@H]1CC(NC(=O)c2cc(C3CC3)on2)CCN1C(=O)[C@@H]1CC[C@@H](N)C1 (stereo partly drawn) [compound 85, N-((2S)-1-((1R,3R)-3-aminocyclopentane-1-carbonyl)-2-methylpiperidin-4-yl)-5-cyclopropylisoxazole-3-carboxamide]
17 | 2.56 µM | C[C@H]1CC(NC(=O)c2cc(C3CC3)on2)CCN1C(=O)[C@@H]1CC[C@H](N)C1 (stereo partly drawn) [compound 86, N-((2S)-1-((1R,3S)-3-aminocyclopentane-1-carbonyl)-2-methylpiperidin-4-yl)-5-cyclopropylisoxazole-3-carboxamide]
18 | 3.25 µM | C[C@@H]1CC(NC(=O)c2cc(C3CC3)on2)CCN1C(=O)[C@H]1C[C@@H](N)C1 (stereo partly drawn) [compound 87, N-((2R)-1-((1s,3S)-3-aminocyclobutane-1-carbonyl)-2-methylpiperidin-4-yl)-5-cyclopropylisoxazole-3-carboxamide]
19 | 5.33 µM | CN[C@H]1CC[C@H](C(=O)N2CCC(NC(=O)c3cc(C4CC4)on3)C[C@@H]2C)CC1 (stereo partly drawn) [compound 90, 5-cyclopropyl-N-((2S)-2-methyl-1-((1r,4S)-4-(methylamino)cyclohexane-1-carbonyl)piperidin-4-yl)isoxazole-3-carboxamide]
20 | 3.91 µM | C[C@H]1CC(NC(=O)c2cc(C3CC3)on2)CCN1C(=O)CN1CCNCC1 (stereo partly drawn) [compound 91, 5-cyclopropyl-N-((2S)-2-methyl-1-(2-(piperazin-1-yl)acetyl)piperidin-4-yl)isoxazole-3-carboxamide]
21 | 0.778 µM | C[C@@H]1CC(NC(=O)c2cc(C3CC3)on2)CCN1C(=O)CN1CCNCC1 (stereo partly drawn) [compound 92, 5-cyclopropyl-N-((2R)-2-methyl-1-(2-(piperazin-1-yl)acetyl)piperidin-4-yl)isoxazole-3-carboxamide]
22 | 1.61 µM | CC[C@H]1CN(C(=O)C2CCC(N)CC2)CC[C@@H]1NC(=O)c1cc(C2CC2)on1 (stereo partly drawn) [compound 93, N-((3S,4S)-1-(4-aminocyclohexane-1-carbonyl)-3-ethylpiperidin-4-yl)-5-cyclopropylisoxazole-3-carboxamide]
23 | 2.38 µM | CC[C@H]1CC(NC(=O)c2cc(C3CC3)on2)CCN1C(=O)[C@H]1CC[C@H](N)CC1 (stereo partly drawn) [compound 94, N-((2S)-1-((1r,4S)-4-aminocyclohexane-1-carbonyl)-2-ethylpiperidin-4-yl)-5-cyclopropylisoxazole-3-carboxamide]
24 | 0.532 µM | C[C@@H]1CC(NC(=O)c2cc(C3CC3)on2)CCN1C(=O)[C@@H]1CC[C@@H](N)C1 (stereo partly drawn) [compound 95, N-((2R)-1-((1R,3R)-3-aminocyclopentane-1-carbonyl)-2-methylpiperidin-4-yl)-5-cyclopropylisoxazole-3-carboxamide]

Row | Structure (SMILES) | IC50
25 | N[C@H]1CC[C@H](C(=O)N2C3CCCC2CC(NC(=O)c2cc(C4CC4)on2)C3)CC1 (some centres unmarked) [compound 73, N-(9-((1r,4r)-4-aminocyclohexane-1-carbonyl)-9-azabicyclo[3.3.1]nonan-3-yl)-5-cyclopropylisoxazole-3-carboxamide] | 5.35 µM
26 | NC1CCC(C(=O)N2CCC(NC(=O)c3cc(C4CC4)on3)CC2c2ccccc2)CC1 (centres unmarked) [compound 89, N-(1-((1r,4r)-4-aminocyclohexane-1-carbonyl)-2-phenylpiperidin-4-yl)-5-cyclopropylisoxazole-3-carboxamide] | 3.39 µM
